One data set concerns PDE4. Description: Evaluation of PDE4 inhibitory activity, scintillation proximity assay. The format is biochemical. As to conditions: for PDE4 inhibitory activity: summary in words of Tables 57 to 69. An outline of the steps:
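IC50 was derived from inhibition curves, referenced to an enzyme-free blank and a DMSO-only control. Compound, PDE4 preparation and tritiated cAMP reacted 120 min at RT in Tris-HCl buffer (pH 7.4) with MgCl2, EGTA and BSA; YSi-SPA beads with ZnSO4 bound product before scintillation counting.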

Data set [1] in a line: Hepatic metabolic stability (rat liver microsome method). Type of data set: in vitro ADME. As to conditions: rat liver microsomes 0.5 mg/mL, test substance 1 μM, NADPH 1 mM, 37° C., 30 minutes. An outline of the steps: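 Scored by % parent left after 30 min (30 min/0 min ×100, LC-MS), banded A ≥75%, B 60–<75%, C 45–<60%, D <45%. Incubation: 1 μM compound, 0.5 mg/mL rat microsomes, pH 7.4 phosphate buffer, 37° C, 5 min preincubation, NADPH 1 mM started, acetonitrile quench.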
A general note: Liver microsomes are a subcellular fraction often used to study metabolism.

In a further data set the test system is TGF-β. Description: TGF-β inhibitory activity using THP1 cells differentiated into macrophages. Type of data set: cell-based. The note with it: Homo sapiens, THP-1; THP1 cells differentiated into macrophages, lipopolysaccharide 1 μg/mL, about 7 hours; read-out: TFG-β Inhibitory Activity (Test Example 6). The procedure: The TGF-β inhibitory activity was measured using THP1 cells as follows. First, THP1 cells were seeded on a 24-well culture plate at […], and culture was carried out overnight at 37° C. and 5% CO2 in RPMI-1640 medium (containing 10% fetal bovine serum, penicillin, and streptomycin) supplemented with 100 nM phorbol myristate acetate. After that, the cells were differentiated into macrophages by changing to RPMI-1640 medium without phorbol myristate acetate, followed by further culture at 37° C. under 5% CO2 overnight. Next, the THP1 culture plate was washed once with PBS(−) 1 mL/well, and then the test compound and lipopolysaccharide (final concentration 1 μg/mL) were added, followed by culture at 37° C. under 5% CO2 for about 7 hours. After culturing, the entire amount of the medium was collected, and the amount of TGF-β in the centrifuged supernatant was quantified by the sandwich ELISA method. The non-addition of lipopolysaccharide was used as a blank, and the control was obtained by adding only dimethyl sulfoxide instead of the test compound, and the inhibition rate of the test compound against the control was calculated by the following formula. Inhibition Rate (%)={1−(Value at Addition of Each Test Compound−Blank Value)/(Control Value−Blank Value)}×100
In addition, the TGF-β inhibitory activity (concentration for the inhibition rate of 50%) of the test compound was calculated from the inhibition curves based on the inhibition rate for various concentrations of the test compound.
The measurement results obtained by measuring the TFG-β inhibitory activity (50% inhibitory concentration) of the test compounds by the above method were evaluated in accordance with the following evaluated basis; A: less than 1 μM, and B: 1 μM or more.

For data set [2], the system named is oxazolone-induced auricle edema, BALB/c mice. Put plainly: Hapten repeated application mouse chronic dermatitis model (oral, topical). The format is in vivo. The note with it: oral, 0.3 to 10 mg/kg twice a day for 10 days. The procedure:
Evaluation was carried out using female BALB/c mice (7 to 8 weeks of age). First, the hair of the abdomen of the mice was treated with a hair clipper, and then 150 μL of a 3% oxazolone acetone/ethanol solution was applied to the abdomen as a hapten. One week later, 20 μL/ear of 1% oxazolone acetone/ethanol solution was applied to the outer surface of the auricle of both ears of the mice 3 times/week to induce inflammation. A 1% oxazolone-acetone/ethanol solution was applied every other day for 10 days from 1 week after the start of inflammation induction. In addition, for 10 days from 1 week after the start of inflammation induction, the test compound suspended in 0.5% w/v methylcellulose (0.5% MC) was orally administered at 0.3 to 10 mg/kg twice a day (10 μL/g), or 20 μL of a 0.3 to 3% test compound dissolved in an acetone/ethanol solution was applied once or twice a day (topical administration). A 1% oxazolone was not applied to the blank. The control was one in which 1% oxazolone was applied and only 0.5% MC was orally administered without using the test compound, or only an acetone/ethanol solution was applied.
After administration for 10 days, auricle thickness was measured using a dial thickness gauge, and the changes in auricular thickness before the treatment (immediately before the start of administration of the test compound) and after the treatment (after the administration of the test compound for 10 days) were used to calculate the edema suppression rate by the following formula. Edema Suppression Rate (%)={1−(Auricle Thickness After Treatment by Test Compound−Auricle Thickness Before Treatment by Test Compound)/(Auricle Thickness After Treatment of Control−Auricle Thickness Before Treatment of Control)}×100
The measurement results obtained by measuring the edema suppression rate at the time of oral administration of each test compound by the above method were evaluated in accordance with the following evaluated basis; A: 70% or more, B: 40% or more and less than 70%, and C: less than 40%. In addition, the measurement results obtained by measuring the edema suppression rate at the time of topical administration of each test compound were evaluated in accordance with the following evaluated basis; A: 100% or more, B: 70% or more and less than 100%, and C: less than 70%.

For a further data set, the system named is TNFα. Put plainly: Cytokine suppression using whole human blood: TNFα (lipopolysaccharide stimulus). Type of data set: cell-based. As to conditions: Homo sapiens, human whole blood; read-out: TNFα Inhibitory Activity, Human Whole Blood (Test Example 3). On the procedure:
The test compound dissolved in dimethyl sulfoxide was added to a 96-well plate, and RPMI-1640 medium and human peripheral blood containing sodium heparin were added, followed by culture at 37° C. under 5% CO2 for 1 hour. A medium containing only dimethyl sulfoxide instead of the test compound was added to the control well. To each well, lipopolysaccharide (final concentration 10 ng/mL) as a TNFα production stimulant, or phytohaemagglutinin (final concentration 20 μg/mL) as an IL-17A production stimulant, or CytoStim reagent ( 1/100 concentration) and CD28 antibody (final concentration 2.5 ng/mL) as an IL-4 production stimulant and an IL-5 production stimulant were added, followed by culture at 37° C. under 5% CO2. The culture was carried out for about 18 hours for the evaluation of the amount of TNFα, and for about 48 hours for the evaluation of the amounts of IL-17A, IL-4, and IL-5.
After collecting the culture supernatant after culturing, the amount of each cytokine was measured by the sandwich ELISA method. The cytokine production suppression rate (inhibition rate) by the test compound was calculated by the following formula from the cytokine production amount when the test compound was added, with the cytokine production amount for the control well as 100%. Inhibition Rate={1−(Cytokine Amount at Addition of Each Test Compound)/(Cytokine Amount for Control Well)}×100
In addition, the cytokine inhibitory activity (concentration for the inhibition rate of 50%) of the test compound was calculated from the inhibition curves based on the inhibition rates for various concentrations of the test compound.
The measurement results obtained by measuring the TNFα inhibitory activity and IL-5 inhibitory activity (50% inhibitory concentration) of the test compounds by the above method were evaluated in accordance with the following evaluated basis; A: less than 100 nM, B: 100 nM or more and less than 500 nM, and C: 500 nM or more. In addition, the measurement results obtained by measuring the IL-17A inhibitory activity and IL-4 inhibitory activity (50% inhibitory concentration) of the test compounds were evaluated in accordance with the following evaluated basis; A: less than 500 nM, B: 500 nM or more and less than 5000 nM, and C: 5000 nM or more.

Setting [3] is: finer grading of compounds rated A in Evaluation 1, read-out: PDE4 Inhibitory Activity (Evaluation 2).
Where [4] appears, read: scintillation proximity assay, class symbols of Evaluation 1, read-out: PDE4 Inhibitory Activity (concentration for the inhibition rate of 50%, IC50), Evaluation 1.
[5] abbreviates: scintillation proximity assay, read-out: PDE4 Inhibitory Activity (Evaluation 1; concentration for the inhibition rate of 50%).

Where two headings read alike, the source gives them in different places.

`FC(F)(F)Oc1c(Cl)cc(-c2nccs2)c2oc(N3CC4CC(C3)N4)nc12` [Example 3, 2-(3,6-Diazabicyclo[3.1.1]heptan-3-yl)-5-chloro-7-(thiazol-2-yl)-4-(trifluoromethoxy)benzo[d]oxazole]: the IC50 is not above 1 nM with PDE4 (setting [3]), less than 100 nM in the data set with PDE4 (setting [4]) and less than 1000 nM in the data set with TGF-β. The PDE4 inhibitory activity entry in the data set with PDE4 is “particularly excellent”. The “Residual ratio (% remaining for 30-minute reaction)” value in data set [1] is “B (B: 60% or more and less than 75%)”.
On to `FC(F)(F)Oc1c(Cl)cc(-c2nccs2)c2oc(N3CC4COCC(C3)N4)nc12` [Example 4, 7-(5-Chloro-7-(thiazol-2-yl)-4-(trifluoromethoxy)benzo[d]oxazol-2-yl)-3-oxa-7,9-diazabicyclo[3.3.1]nonane], for which the IC50 is 1 to 11 nM with PDE4 (setting [3]), less than 100 nM in the data set with PDE4 (setting [4]) and less than 1000 nM in the data set on TGF-β. Moreover, the PDE4 inhibitory activity result with PDE4 is recorded as “particularly excellent”.
On the same counts, the results for `Cc1ccc(-c2nccs2)c2oc(N3CC4CCC(C3)N4)nc12` [Example 25, 2-(3,8-Diazabicyclo[3.2.1]octan-3-yl)-4-methyl-7-(thiazol-2-yl)benzo[d]oxazole] are not above 1 nM, less than 100 nM, less than 1000 nM and “particularly excellent”.
The like results for `FC(F)(F)Oc1ccc(-c2nccs2)c2oc(N3CC4CCCC(C3)N4)nc12` [Example 30, 2-(3,9-Diazabicyclo[3.3.1]nonan-3-yl)-7-(thiazol-2-yl)-4-(trifluoromethoxy)benzo[d]oxazole] were, in that order, not above 1 nM, less than 100 nM, less than 1000 nM and “particularly excellent”.
In the case of `FC(F)(F)c1ccc(-c2nccs2)c2oc(N3CC4CC(C3)N4)nc12` [Example 32, 2-(3,6-Diazabicyclo[3.1.1]heptan-3-yl)-7-(thiazol-2-yl)-4-(trifluoromethyl)benzo[d]oxazole], the values for the IC50 in the data set on PDE4 (setting [3]), with PDE4 (setting [4]) and in the data set with TGF-β were 1 to 11 nM, less than 100 nM and less than 1000 nM, respectively. The PDE4 inhibitory activity entry with PDE4 is on record as “particularly excellent”.
On the same counts, the results for `COc1ccc(-c2nccs2)c2oc(N3CC4CCC(C3)N4)nc12` [Example 75, 2-(3,8-Diazabicyclo[3.2.1]octan-3-yl)-4-methoxy-7-(thiazol-2-yl)benzo[d]oxazole] are 1 to 11 nM, less than 100 nM, less than 1000 nM and “particularly excellent”.
Turning to `OC(c1ccc(-c2nccs2)c2oc(N3CC4CC(C3)N4)nc12)C(F)(F)F` (stereo not drawn) [Example 120, 1-(2-(3,6-Diazabicyclo[3.1.1]heptan-3-yl)-7-(thiazol-2-yl)benzo[d]oxazol-4-yl)-2,2,2-trifluoroethan-1-ol], the IC50 in the data set with PDE4 (setting [3]) was 1 to 11 nM; in the data set with PDE4 (setting [4]) it was less than 100 nM; with TGF-β, less than 1000 nM. In the data set with PDE4, the PDE4 inhibitory activity entry was “particularly excellent”. In addition, in data set [2], the “Mouse Chronic Dermatitis Model (Test Example 8), Oral: edema suppression rate” value (“Mouse Chronic Dermatitis Model” for short) was “B (B: 40% or more and less than 70%)”.
On to `CC(C)(O)c1cc(-c2nccs2)c2oc(N3CC4CCC(C3)N4)nc2c1C(F)(F)F` [Example 177, 2-(2-(3,8-Diazabicyclo[3.2.1]octan-3-yl)-7-(thiazol-2-yl)-4-(trifluoromethyl)benzo[d]oxazol-5-yl)propan-2-ol], for which the IC50 in the data set on PDE4 (setting [3]) was 1 to 11 nM; with PDE4 (setting [4]), less than 100 nM; in the data set with TGF-β it was less than 1000 nM. In addition, in the data set with PDE4, the PDE4 inhibitory activity entry was “particularly excellent”.
Turning to `COC(C)(C)c1cc(-c2nccs2)c2oc(N3CC4CCC(C3)N4)nc2c1OC(F)(F)F` [Example 198, 2-(3,8-Diazabicyclo[3.2.1]octan-3-yl)-5-(2-methoxypropan-2-yl)-7-(thiazol-2-yl)-4-(trifluoromethoxy)benzo[d]oxazole], the results for the IC50 in the data set with PDE4 (setting [3]), with PDE4 (setting [5]) and with TNFα were not above 1 nM, less than 100 nM and 100 to 500 nM, respectively. Besides, the PDE4 inhibitory activity entry in the data set on PDE4 was “particularly excellent”.
With `COC(C)(C)c1cc(-c2nccs2)c2oc(N3CC4CC(C3)N4)nc2c1OC(F)(F)F` [Example 199, 2-(3,6-Diazabicyclo[3.1.1]heptan-3-yl)-5-(2-methoxypropan-2-yl)-7-(thiazol-2-yl)-4-(trifluoromethoxy)benzo[d]oxazole], the IC50 was 1 to 11 nM in the data set with PDE4 (setting [3]), less than 100 nM in the data set with PDE4 (setting [5]) and less than 1000 nM in the data set on TGF-β. Also, the PDE4 inhibitory activity entry in the data set with PDE4 was “particularly excellent”. Further, in data set [2], the “Mouse Chronic Dermatitis Model” value was “B (B: 40% or more and less than 70%)”.
With `CC(O)c1cc(-c2nccs2)c2oc(N3CC4CC(C3)N4)nc2c1OC(F)(F)F` (stereo not drawn) [Example 203, 1-(2-(3,6-Diazabicyclo[3.1.1]heptan-3-yl)-7-(thiazol-2-yl)-4-(trifluoromethoxy)benzo[d]oxazol-5-yl)ethan-1-ol], the figures for the IC50 in the data set with PDE4 (setting [3]), in the data set with PDE4 (setting [5]) and in the data set on TGF-β were 1 to 11 nM, less than 100 nM and less than 1000 nM, respectively. Moreover, the PDE4 inhibitory activity entry with PDE4 is listed as “particularly excellent”. Besides, in data set [2], the “Mouse Chronic Dermatitis Model” value was “B (B: 40% or more and less than 70%)”.

Source of the values: US12239643B2, “Therapeutic agent for inflammatory diseases, autoimmune diseases, fibrotic diseases, and cancer diseases” (MEIJI SEIKA PHARMA CO., LTD., priority 2018, dated 2025).
